Experimental data as given in article PMC7449170, “ATI-2173, a Novel Liver-Targeted Non-Chain-Terminating Nucleotide for Hepatitis B Virus Cure Regimens” (Antimicrobial Agents and Chemotherapy, 2020).

Experiments:
[1] = system: HBV genotypes A, B, C, D, E, F, G, and H; assay: microbe, parasite or virus in culture; format: cell-based; details: Hepatitis B virus, HepG2, read-out: EC50 across HBV genotypes A to H
[2] = system: HBV genotype A (HE974371); assay: microbe, parasite or virus in culture; format: cell-based; details: Hepatitis B virus, HepG2
HBV rtV173L+M204I = assay: microbe, parasite or virus in culture; format: cell-based; details: Hepatitis B virus, HepG2
HBV coreP25A = assay: microbe, parasite or virus in culture; format: cell-based, Hepatitis B virus; details: Hepatitis B virus, HepG2
HepG2 cells = assay: Mitochondrial toxicity, glucose/galactose assay; details: 20 mM glucose or 10 mM galactose, up to 100 μM, day 11
Protein binding = format: in vitro ADME; details: data not shown
[3] = system: HBV genotype H (AB179747); assay: microbe, parasite or virus in culture; format: cell-based; details: Hepatitis B virus, HepG2
[4] = system: cryopreserved primary human hepatocytes; assay: Cytotoxicity in primary human hepatocytes (CellTiter-Glo); details: up to 100 μM, 72 h
Method: (§1) HK-2 human kidney cells were obtained from ATCC (Manassas, VA) and cultured in Gibco Keratinocyte serum-free medium (Thermo Fisher Scientific, Waltham, MA) supplemented with 10% FBS (Peak Serum, Wellington, CO). Human skeletal muscle cells were obtained from Lonza (Walkersville, MD) and cultured in SkGM-2 skeletal muscle cell growth medium-2 (Lonza). Both HK-2 and skeletal muscle cells were cultured humidified at 37°C and 5% CO2. Cryopreserved human primary hepatocytes and medium were received from Lonza. Cryopreserved iCell cardiomyocytes and cardiomyocyte medium were purchased from Stem Cell Technologies (Vancouver, BC, Canada). Cryopreserved human bone marrow mononuclear cells were purchased from Lonza with HemaTox Myeloid medium purchased from [sequence] […] All cryopreserved cells (human primary hepatocytes, iCell cardiomyocytes, and human bone marrow mononuclear cells) were stored in vapor phase liquid nitrogen until the day of plating. […] Serial dilutions of compounds in DMSO were as follows: 100, 10, 1, 0.1, 0.01, 0.001, 0.0001, and 0.00001 μM (final concentration of DMSO in medium was 0.5%). […]
(§2) Following incubation, cells were dosed and incubated for 72 h at 37°C and 5% CO2. Following incubation, the endpoint cell viability CellTiter-Glo 2.0 assay (Promega, San Luis Obispo, CA) was performed and luminescence data collected on a Synergy 4 plate reader (Biotek, Winooski, VT). […]

[5] = system: HBV genotype E (AB091255); assay: microbe, parasite or virus in culture; format: cell-based; details: Hepatitis B virus, HepG2
[6] = system: HBV genotype B (JN406371); assay: microbe, parasite or virus in culture; format: cell-based; details: Hepatitis B virus, HepG2
HBV coreT33N = assay: microbe, parasite or virus in culture; format: cell-based, Hepatitis B virus; details: Hepatitis B virus, HepG2
HK-2 human kidney cells = assay: Cytotoxicity in HK-2 kidney cells (CellTiter-Glo); details: up to 100 μM, 72 h
Method: as §1, §2

HBV rtA181V = assay: microbe, parasite or virus in culture; format: cell-based; details: Hepatitis B virus, HepG2
[7] = system: human bone marrow mononuclear cells; assay: Cytotoxicity in bone marrow mononuclear cells (CellTiter-Glo); details: at 100 μM or greater, 72 h
Method: HK-2 human kidney cells were obtained from ATCC (Manassas, VA) and cultured in Gibco Keratinocyte serum-free medium (Thermo Fisher Scientific, Waltham, MA) supplemented with 10% FBS (Peak Serum, Wellington, CO). Human skeletal muscle cells were obtained from Lonza (Walkersville, MD) and cultured in SkGM-2 skeletal muscle cell growth medium-2 (Lonza). Both HK-2 and skeletal muscle cells were cultured humidified at 37°C and 5% CO2. Cryopreserved human primary hepatocytes and medium were received from Lonza. Cryopreserved iCell cardiomyocytes and cardiomyocyte medium were purchased from Stem Cell Technologies (Vancouver, BC, Canada). Cryopreserved human bone marrow mononuclear cells were purchased from Lonza with HemaTox Myeloid medium purchased from [sequence] […] All cryopreserved cells (human primary hepatocytes, iCell cardiomyocytes, and human bone marrow mononuclear cells) were stored in vapor phase liquid nitrogen until the day of plating. […] Serial dilutions of compounds in DMSO were as follows: 100, 10, 1, 0.1, 0.01, 0.001, 0.0001, and 0.00001 μM (final concentration of DMSO in medium was 0.5%).
HK-2 and skeletal muscle cells were seeded into 96-well plates at 5,000 cells/well and incubated overnight at 37°C and 5% CO2. Human hepatocytes were thawed, diluted in hepatocyte plating medium (Lonza) and seeded into a 96-well, collagen-coated plates at 2.5 × 10^4 cells/well. Hepatocytes were incubated for 6 h at 37°C in 5% CO2, then the medium was aspirated and replaced with hepatocyte culture medium at 50 μl/well, and finally incubated overnight. The iCell cardiomyocytes were thawed, suspended in iCell thawing/plating medium, and plated at 4 × 10^4 cells/well in a gelatin-coated 96-well plate. iCells were incubated for 2 days at 37°C in 7% CO2. […]
as §2

[8] = Food effect on plasma exposure in rats; format: in vivo; details: single oral 50 mg/kg, data not shown
[9] = system: HBV genotype G (AB064315); assay: microbe, parasite or virus in culture; format: cell-based; details: Hepatitis B virus, HepG2
[10] = Cell viability (CC50) in HepG2.2.15 cells; details: human
HBV wild type (U95551) = assay: Cross-resistance in transfected HepG2 cells, wild type; format: cell-based, Hepatitis B virus; details: Hepatitis B virus
iCell cardiomyocytes = assay: Cytotoxicity in iCell cardiomyocytes (CellTiter-Glo); details: up to 100 μM, 72 h
Method: as §1, §2

HBV = assay: Serum shift of anti-HBV EC50; format: cell-based, Hepatitis B virus; details: data not shown
HBV rtL180M+M204V = assay: microbe, parasite or virus in culture; format: cell-based; details: Hepatitis B virus, HepG2
[11] = system: HBV genotype F (HE974369); assay: microbe, parasite or virus in culture; format: cell-based; details: Hepatitis B virus, HepG2
[12] = Cell viability (CC50) in primary human hepatocytes
hepatitis C virus = assay: Antiviral panel: hepatitis C virus; format: cell-based; details: up to 100 μM, data not shown
[13] = system: respiratory syncytial virus; assay: Antiviral panel: respiratory syncytial virus; format: cell-based; details: up to 100 μM, data not shown
HBV rtM204V = assay: microbe, parasite or virus in culture; format: cell-based; details: Hepatitis B virus, HepG2
[14] = system: human immunodeficiency virus 1; assay: Antiviral panel: human immunodeficiency virus 1; format: cell-based; details: up to 100 μM, data not shown
HBV genotype D (U955551) = assay: microbe, parasite or virus in culture; format: cell-based; details: Hepatitis B virus, HepG2
HBV rtN236T = assay: microbe, parasite or virus in culture; format: cell-based; details: Hepatitis B virus, HepG2

`Cc1cn(C2OC(COP(=O)(NC(C)C(=O)OC(C)C)Oc3ccccc3)C(O)C2F)c(=O)[nH]c1=O` (centres unmarked) [ATI-2173] gave an EC50 [1] of 212 to 718 nM, an EC50 [2] of 416 nM and an EC50 (HBV rtV173L+M204I) greater than 10000 nM. The EC50 (HBV coreP25A) was 537 nM, the “Mitochondrial toxicity (cell viability in glucose versus galactose medium)” value (HepG2 cells) was “no apparent mitochondrial toxicity” and the fraction unbound (Protein binding) was roughly 0.45. The EC50 [3] was 718 nM, the Cytotoxicity [4] was “did not demonstrate any cytotoxicity” and the EC50 [5] was 427 nM. The EC50 [6] was 212 nM, the EC50 (HBV coreT33N) was 338 nM and the Cytotoxicity (HK-2 human kidney cells) was “did not demonstrate any cytotoxicity”. For the same compound, the EC50 (HBV rtA181V) was greater than 10000 nM, the Cytotoxicity [7] was “Minimal cytotoxicity and mild” and the “Difference in plasma exposure (Cmax or AUC0-last) to ATI-2173 or clevudine, fed versus fasted” value [8] was “no discernible differences”. For the same compound, the EC50 [9] was 230 nM, the CC50 [10] was greater than 10000 nM and the EC50 (HBV wild type (U95551)) was 601 nM. For the same compound, the Cytotoxicity (iCell cardiomyocytes) was “did not demonstrate any cytotoxicity”, the “Serum shift in EC50” value (HBV) was “no clear serum shift” and the EC50 (HBV rtL180M+M204V) was greater than 10000 nM. For the same compound, the EC50 [11] was 328 nM, the CC50 [12] was greater than 20 nM and the Antiviral efficacy (hepatitis C virus) was “no detectable efficacy”. The Antiviral efficacy [13] was “no detectable efficacy”, the EC50 (HBV rtM204V) was 162 nM and the Antiviral efficacy [14] was “no detectable efficacy”. For the same compound, the EC50 (HBV genotype D (U955551)) was 234 nM and the EC50 (HBV rtN236T) was 386 nM.
